Data on one compound can be found in PMC3077571 (Nature structural & molecular biology, 2011).

The test concerns the target MBP W62F mutant (Escherichia coli, UniProt P0AEX9, S259C/W88F). Type of test: binding. The note with it: no sAB.

`OC[C@H]1O[C@H](O[C@H]2[C@H](O)[C@@H](O)C(O)O[C@@H]2CO)[C@H](O)[C@@H](O)[C@@H]1O` (mixture of isomers) [maltose]: the “decrease in maltose binding energy caused by W62F mutation” value is recorded as ~ 2 kcal/mol.
